Data set [1] concerns normal lymphocytes (PBL) from healthy donors stimulated with PHA and TPA. Nature of the data set: Cytotoxicity, XTT assay, normal lymphocytes (PBL). Particulars: 24 hours; for IC50: Lymphocyte, XTT, PBL pre-incubated with PHA and TPA; for Cytotoxic effect on normal lymphocytes (FIG. 1): PBL, 0.005-0.5 mM. In kind it is cell-based. The protocol: Mononuclear cells were isolated from peripheral blood of healthy donors by ficoll-hypaque density gradient centrifugation. The mononuclear cells were allowed to adhere to plastic dishes to remove macrophages. The non-adherent peripheral blood lymphocytes (PBL) were pre-incubated with 0.8 μg/mL PHA and 5 ng/mL TPA for 24 hours and then used in further experiments.
(§1) Cell densities were as follows: Molt-4 (at 2.5×10^4 cells in 100 μl per well), CT26 (at 5×10^3 cells in 100 μl, per well), MCF7 (at 5×10^3 cells in 100 μL per well) and PBL (at 1.5×10^5 cells in 100 μl per well) seeded in 96-well plates. Adherent cells (CT26 and MCF7) were allowed to adhere over-night.
(§2) Jasmonate-derivatives were added at concentration ranging from 0.005-0.5 mM for 24 hours. Each experimental point was performed in triplicates. Untreated cells were used as control. […] Dilutions were performed in culture medium and ethanol so that the final concentration of ethanol in each well was 0.6%.
(§3) Optical density representing viable cells was determined using the XTT Cell Proliferation Kit assay (Biological industries, Beit-Haemek, Israel).
(§4) Percentage of Optical density is directly proportional to the number of living cells in culture. Cytotoxicity (%) was calculated in the following way: [(OD of control cells−OD of drug-treated cells)/OD of control cells]×100.
(§5) Mononuclear cells were isolated from peripheral blood of healthy donors and treated as described above. The non-adherent PBL were pre-incubated with PHA and TPA as described above. Molt-4 and PBL cells were seeded in 96-well plates as described above.
(§6) Each experimental point was performed in triplicates. Untreated cells were used as control. […] Optical density and percentage of Cytotoxicity were determined as described above.
For orientation: Formazan colour is commonly taken as a measure of viable cells.

In data set [2] the test system is MCF7 human breast adenocarcinoma cell-line. Nature of the data set: Cytotoxicity, XTT Cell Proliferation Kit assay, MCF7. The following applies: 24 hours, read-out: IC50 in MCF-7. In kind it is cell-based. The procedure: as §1, §2, §3, §4
For data set [3], the system named is CT26 murine colon carcinoma cell-line. Nature of the data set: Cytotoxicity, XTT Cell Proliferation Kit assay, CT26. The data set is classed as cell-based. The following applies: Mus musculus, 24 hours, read-out: IC50 in CT-26. The protocol: as §1, §2, §3, §4
Data set [4] concerns Molt-4 human acute lymphoblastic leukemia cell-line. Put plainly: Cytotoxicity, XTT Cell Proliferation Kit assay, Molt-4. The data set is classed as cell-based. The following applies: 24 hours; for IC50: XTT; for Cytotoxic effect on leukemic cells (FIG. 1): Molt-4, 0.005-0.5 mM. The procedure:
as §1, §2, §3, §4, §5, §6

Data set [5] has as its system basal cell carcinoma cells (cell line TE 354.T). Put plainly: Proliferation assay using XTT reagent, basal cell carcinoma cells. The data set is classed as cell-based. Particulars: three days, read-out: IC50 inhibition of proliferation of basal cell carcinoma cells. The procedure: (§7) The effect of methyl jasmonate and compound 9 and 9A on the proliferation of squamous cell carcinoma cells (cell line A431) and basal cell carcinoma cells (cell line TE 354.T) was determined.
(§8) Cells were treated with various concentrations of methyl jasmonate and the compounds 9 and 9A for three days followed by a proliferation assay using XTT reagent (sodium 2,3,-bis(2-methoxy-4-nitro-5-sulfophenyl)-5-[(phenylamino)-carbonyl]-2H-tetrazolium inner salt).

Data set [6] deals with squamous cell carcinoma cells (cell line A431). Put plainly: Proliferation assay using XTT reagent, squamous cell carcinoma cells. In kind it is cell-based. The following applies: A431, three days, read-out: IC50 inhibition of proliferation of squamous cell carcinoma cells. The protocol: as §7, §8
A further data set deals with lymphomas. Particulars: U.S. Pat. No. 6,469,061; cited from earlier work.
Another data set deals with cancer cells. Particulars: Fingrut et al., 2005; cited from earlier work.
Data set [7] relates to LXFA 629 lung, non small, adeno carcinoma, pd. Put plainly: Clonogenic assay (TCA), LXFA 629. Particulars: Homo sapiens, LXFA 629, Adeno carcinoma, read-out: IC50 colony formation. The data set is classed as cell-based. The procedure:
(§9) Cancer cells were taken directly from cancer patients, employing the Tumor-Colony-Assay: Solid human tumor xenografts growing subcutaneously in serial passages in thymus aplastic nude mice were removed and disaggregated to obtain isolated tumor cells. Viable cells were added to culture medium supplemented with agar and plated in 24-multiwell dishes. The test compound was applied in the cultures that were incubated at 37° C. for 6-20 days and monitored for colony growth using an inverted microscope. At the time of maximum colony formation, colonies were counted and 24 hours prior to evaluation, stained with a vital dye. Drug effects were expressed in terms of the percentage of colony formation, obtained by comparison of the mean number of colonies in the treated wells with the mean colony count of untreated controls. IC50 values, being the drug concentrations necessary to inhibit colony formation by 50%, were determined by plotting compound concentration versus relative colony count.

A further data set concerns B16F10 melanoma cells. Put plainly: Experimental metastasis of B16 melanoma cells to the lungs in vivo. Also noted: species or system C57bl mice. Particulars: 10 mg/kg i.v. once daily, 5 days a week for 3 weeks; lungs weighed after 22 days. The procedure: The experiment was comprised of 3 groups of C57bl mice (12-15 weeks old, n=12), total of 36 all inoculated with B16F10 melanoma cells, 0.1 ml of B16F10 in PBS×1, inoculums of 7×10^5 cells per mouse. Group M1—non treated, Group M2—treated once daily, 5 days a week for 3 weeks with Compound 9 dissolved with surfactants (10 mg/kg, diluted 1:5 with Saline, i.v.), and Group M3—a positive control group treated with Paclitaxel once in 7 days (15 mg/kg, i.v.). After 22 days, mice were sacrificed and lungs were weighed. Lungs with metastases weigh more than normal lungs (which weigh about 200 mg), and a decrease in lung weight in comparison to control tumor-bearing untreated mice signifies an anti-metastatic effect.

Data set [8] has as its system LXFA 749 lung, non small, adeno carcinoma, pd. Nature of the data set: Clonogenic assay (TCA), LXFA 749. In kind it is cell-based. Particulars: Homo sapiens, LXFA 749, Adeno carcinoma, read-out: IC50 colony formation. The protocol:
as §9

For data set [9], the system named is MAXF 857 breast invasive ductal carcinoma. Put plainly: Clonogenic assay (TCA), MAXF 857. The data set is classed as cell-based. Particulars: Homo sapiens, MAXF 857, Invasive ductal carcinoma, read-out: IC50 colony formation. The procedure:
as §9

In data set [10] the test system is LXFA 1012 lung, non small, adeno carcinoma, pd. Nature of the data set: Clonogenic assay (TCA), LXFA 1012. The data set is classed as cell-based. Particulars: Homo sapiens, LXFA 1012, Adeno carcinoma, read-out: IC50 colony formation. The procedure:
as §9

For data set [11], the system named is MAXF 1322 breast papillary adeno carcinoma, pd. Nature of the data set: Clonogenic assay (TCA), MAXF 1322. Particulars: Homo sapiens, MAXF 1322, Papillary adeno carcinoma, read-out: IC50 colony formation. The data set is classed as cell-based. The protocol:
as §9

Data set [12] has as its system CT-26 colon carcinoma cells. Nature of the data set: ATP levels, CellTiter-Glo Luminescent Cell Viability Assay. The data set is classed as cell-based, Murine. The protocol: CT-26 cells were exposed to compound 9 for 3 hours and ATP levels were measured using the CellTiter-Glot Luminescent Cell Viability Assay (Promega, Madison, Wis., U.S.A.). […] It thus appears that a drop in cellular energy levels may precipitate the cytotoxic effect of compound 9.
(ATP-based viability assays read luminescence as a measure of living cells.)

Data set [13] relates to GXF 214 stomach adeno carcinoma, ud. Nature of the data set: Clonogenic assay (TCA), GXF 214. The data set is classed as cell-based. Particulars: Homo sapiens, GXF 214, Adeno carcinoma, read-out: IC50 colony formation. The procedure:
as §9

For data set [14], the system named is CXF 1299 colon adeno carcinoma. Nature of the data set: Clonogenic assay (TCA), CXF 1299. In kind it is cell-based. The following applies: Homo sapiens, CXF 1299, Adeno carcinoma, read-out: IC50 colony formation. The protocol: as §9
In data set [15] the test system is LXFL 430 large cell lung carcinoma, ud. Nature of the data set: Clonogenic assay (TCA), LXFL 430. In kind it is cell-based. The following applies: Homo sapiens, non small, read-out: IC50 colony formation. The procedure:
as §9

Data set [16] has as its system CXF 280 colon adeno carcinoma, ud. Nature of the data set: Clonogenic assay (TCA), CXF 280. In kind it is cell-based. Particulars: Homo sapiens, CXF 280, Adeno carcinoma, read-out: IC50 colony formation. The protocol: as §9
The subject of data set [17] is LXFA 1041 lung, non small, adeno carcinoma, md. Put plainly: Clonogenic assay (TCA), LXFA 1041. The data set is classed as cell-based. Particulars: Homo sapiens, LXFA 1041, Adeno carcinoma, read-out: IC50 colony formation. The protocol: as §9
In data set [18] the test system is RXF 1220 kidney hypernephroma, pd. Nature of the data set: Clonogenic assay (TCA), RXF 1220. In kind it is cell-based. The following applies: Homo sapiens, RXF 1220, Hypernephroma, read-out: IC50 colony formation. The procedure: as §9
Data set [19] deals with LXFS 573 small cell lung carcinoma. Nature of the data set: Clonogenic assay (TCA), LXFS 573. In kind it is cell-based. Particulars: Homo sapiens, read-out: IC50 colony formation. The procedure:
as §9

Data set [20] has as its system RXF 423 kidney hypernephroid adeno carcinoma. Put plainly: Clonogenic assay (TCA), RXF 423. In kind it is cell-based. Particulars: Homo sapiens, RXF 423, Hypernephroid adeno carcinoma, read-out: IC50 colony formation. The procedure:
as §9

SMILES strings stand for the structures. Like-named read-outs stand apart in the source and are kept apart here.

`CC/C=C\CC1C(=O)CCC1CCOC(C)=O` (centres unmarked) [Compound 2]: the IC50 in data set [1] is greater than 500 µM; in [2], greater than 500 µM; in data set [3] it was greater than 500 µM; in data set [4] (Homo sapiens, MOLT-4) it was 440 ± 109 µM.

For `CC/C=C\CC1C(=O)CCC1CC(=O)OC1OC(CO)C(O)C(O)C1O` (centres unmarked) [Compound 11], the IC50 in data set [1] was determined as 323 ± 211 µM; in [2] it was 110 ± 20 µM; in data set [3], 237 ± 29 µM; in data set [4] (Homo sapiens, MOLT-4), 79 ± 6 µM. Moreover, in data set [1], the “Cytotoxic effect on normal lymphocytes (FIG. 1)” value is “without exerting a substantial effect on normal lymphocytes”. For the same compound, the “Cytotoxic effect on leukemic cells (FIG. 1)” value in data set [4] was “kill leukemic cells”.

Consider `CCC1C(CC2C(=O)CCC2CC(=O)OC)C1(Cl)Cl` (centres unmarked) [Compound 7], for which the IC50 is 425 ± 21 µM in [1]; 323 ± 75 µM in data set [2]; 393 ± 141 µM in [3]; 125 ± 26 µM in [4] (Homo sapiens, MOLT-4).

As for `CCCCCC1C(=O)CCC1CC(=O)Oc1cccc2cccnc12` (centres unmarked) [Compound 9A], the IC50 in [5] worked out at 0.116 µM; in [4] it was 10 µM; in data set [6], 0.036 µM.

Regarding `CCCCCC1C(=O)CCC1CCO[Si](C)(C)C(C)(C)C` (centres unmarked) [Compound 6], the IC50 in data set [1] was 90 ± 14 µM; in data set [2], 236 ± 180 µM; in data set [3], 263 ± 212 µM; in data set [4] (Homo sapiens, MOLT-4), 56 ± 11 µM.

As for `CC/C=C\CC1C(=O)CCC1CC(=O)NC(CC(C)C)C(=O)OC` (centres unmarked) [Compound 10], the IC50 in [1] is greater than 500 µM; in data set [3], greater than 500 µM; in data set [4] (Homo sapiens, MOLT-4), 243 ± 39 µM.

In the case of `CCC(Br)C(Br)CC1C(=O)CCC1CCO` (centres unmarked) [Compound 8], the IC50 turned out to be 60 ± 14 µM in data set [1]; 120 ± 60 µM in data set [2]; 163 ± 42 µM in data set [3]; 50 ± 28 µM in data set [4] (Homo sapiens, MOLT-4).

With `CC/C=C\CC1C(=O)CCC1CC(=O)OC` (centres unmarked) [Methyl jasmonate, methyl jasmonate, reference compound], the IC50 in data set [5] (72 h) came out at 16 µM; in data set [6] (Homo sapiens, A-431, 72 h), 14 µM. Also, the “Prevention of development of lymphomas in mice” value in the data set on lymphomas was “effective in preventing development of lymphomas in mice”. Moreover, the “Decrease in ATP levels in cancer cells” value with cancer cells is recorded as “can cause a decrease in ATP levels in cancer cells”.

As for `CC/C=C\CC1C(=O)CCC1CC(=O)Oc1cccc2cccnc12` (centres unmarked) [Compound 9], the IC50 was 1.38 µM in data set [7]; 1.7 µM in [8]; 0.049 µM in data set [5] (72 h); 1.55 µM in [9]; 200 ± 85 µM in data set [1]; 1.32 µM in [10]. The IC50 in data set [11] is 1.55 µM; in data set [2], 60 ± 14 µM; in data set [13], 1.94 µM; in [3], 29 ± 21 µM; in [14] it was 1.12 µM; in [15] it was less than 1 µM. For the same compound, the IC50 turned out to be 12 ± 9 µM in [4] (Homo sapiens, MOLT-4); 5.44 µM in data set [16]; 1.5 µM in data set [17]; 6.32 µM in data set [18]; 1.93 µM in data set [19]; 1.69 µM in data set [20]. In addition, the IC50 in [6] (Homo sapiens, A-431, 72 h) came to 0.089 µM. Also, the “Suppression of lung metastasis (lung weight, FIG. 3)” value in the data set with B16F10 melanoma cells was “very effective in suppressing lung metastasis”. In addition, in data set [1], the “Cytotoxic effect on normal lymphocytes (FIG. 1)” value is reported as “without exerting a substantial effect on normal lymphocytes”. Besides, the “Drop in cellular ATP levels (FIG. 2)” value in data set [12] (3 hours exposure, 0.2 or 0.5 mM compound) is on record as “induced a significant drop in cellular ATP levels”. Also, in [12] (3 hours, high (28 mM) versus low (2 mM) glucose), the “Effect of high glucose on the ATP drop (FIG. 2)” value was “this effect was decreased in the presence of high glucose levels”. Besides, the “Cytotoxic effect on leukemic cells (FIG. 1)” value in data set [4] was “kill leukemic cells”.

The record behind these values is patent US9284274B2, “Chemical derivatives of jasmonate, pharmaceutical compositions and methods of use thereof” (RAMOT AT TEL-AVIV UNIVERSITY LTD., priority 2005, dated 2016).
